These results are taken from patent publication US20240246992A1, “MACROCYCLIC LRRK2 KINASE INHIBITORS” (LES LABORATOIRES SERVIER, priority 2021, published 2024).

Some results are limits rather than exact numbers.

The experiment deals with human recombinant LRRK2 protein (Homo sapiens, UniProt Q5S007). In words: LRRK2 kinase activity assay (ADP-Glo, LRRKtide peptide). It counts as biochemical. To be noted: human recombinant LRRK2 wt, LRRKtide peptide and ATP, 1 h at 37° C. In a few lines: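 Human recombinant LRRK2 reacted with LRRKtide peptide and ATP for 1 h at 37 °C in the presence of compound. ADP formed measured by ADP-Glo luminescence; IC50 fitted from 10 concentrations run in duplicate.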
human recombinant LRRK2 protein, sequence (Q5S007 whole entry): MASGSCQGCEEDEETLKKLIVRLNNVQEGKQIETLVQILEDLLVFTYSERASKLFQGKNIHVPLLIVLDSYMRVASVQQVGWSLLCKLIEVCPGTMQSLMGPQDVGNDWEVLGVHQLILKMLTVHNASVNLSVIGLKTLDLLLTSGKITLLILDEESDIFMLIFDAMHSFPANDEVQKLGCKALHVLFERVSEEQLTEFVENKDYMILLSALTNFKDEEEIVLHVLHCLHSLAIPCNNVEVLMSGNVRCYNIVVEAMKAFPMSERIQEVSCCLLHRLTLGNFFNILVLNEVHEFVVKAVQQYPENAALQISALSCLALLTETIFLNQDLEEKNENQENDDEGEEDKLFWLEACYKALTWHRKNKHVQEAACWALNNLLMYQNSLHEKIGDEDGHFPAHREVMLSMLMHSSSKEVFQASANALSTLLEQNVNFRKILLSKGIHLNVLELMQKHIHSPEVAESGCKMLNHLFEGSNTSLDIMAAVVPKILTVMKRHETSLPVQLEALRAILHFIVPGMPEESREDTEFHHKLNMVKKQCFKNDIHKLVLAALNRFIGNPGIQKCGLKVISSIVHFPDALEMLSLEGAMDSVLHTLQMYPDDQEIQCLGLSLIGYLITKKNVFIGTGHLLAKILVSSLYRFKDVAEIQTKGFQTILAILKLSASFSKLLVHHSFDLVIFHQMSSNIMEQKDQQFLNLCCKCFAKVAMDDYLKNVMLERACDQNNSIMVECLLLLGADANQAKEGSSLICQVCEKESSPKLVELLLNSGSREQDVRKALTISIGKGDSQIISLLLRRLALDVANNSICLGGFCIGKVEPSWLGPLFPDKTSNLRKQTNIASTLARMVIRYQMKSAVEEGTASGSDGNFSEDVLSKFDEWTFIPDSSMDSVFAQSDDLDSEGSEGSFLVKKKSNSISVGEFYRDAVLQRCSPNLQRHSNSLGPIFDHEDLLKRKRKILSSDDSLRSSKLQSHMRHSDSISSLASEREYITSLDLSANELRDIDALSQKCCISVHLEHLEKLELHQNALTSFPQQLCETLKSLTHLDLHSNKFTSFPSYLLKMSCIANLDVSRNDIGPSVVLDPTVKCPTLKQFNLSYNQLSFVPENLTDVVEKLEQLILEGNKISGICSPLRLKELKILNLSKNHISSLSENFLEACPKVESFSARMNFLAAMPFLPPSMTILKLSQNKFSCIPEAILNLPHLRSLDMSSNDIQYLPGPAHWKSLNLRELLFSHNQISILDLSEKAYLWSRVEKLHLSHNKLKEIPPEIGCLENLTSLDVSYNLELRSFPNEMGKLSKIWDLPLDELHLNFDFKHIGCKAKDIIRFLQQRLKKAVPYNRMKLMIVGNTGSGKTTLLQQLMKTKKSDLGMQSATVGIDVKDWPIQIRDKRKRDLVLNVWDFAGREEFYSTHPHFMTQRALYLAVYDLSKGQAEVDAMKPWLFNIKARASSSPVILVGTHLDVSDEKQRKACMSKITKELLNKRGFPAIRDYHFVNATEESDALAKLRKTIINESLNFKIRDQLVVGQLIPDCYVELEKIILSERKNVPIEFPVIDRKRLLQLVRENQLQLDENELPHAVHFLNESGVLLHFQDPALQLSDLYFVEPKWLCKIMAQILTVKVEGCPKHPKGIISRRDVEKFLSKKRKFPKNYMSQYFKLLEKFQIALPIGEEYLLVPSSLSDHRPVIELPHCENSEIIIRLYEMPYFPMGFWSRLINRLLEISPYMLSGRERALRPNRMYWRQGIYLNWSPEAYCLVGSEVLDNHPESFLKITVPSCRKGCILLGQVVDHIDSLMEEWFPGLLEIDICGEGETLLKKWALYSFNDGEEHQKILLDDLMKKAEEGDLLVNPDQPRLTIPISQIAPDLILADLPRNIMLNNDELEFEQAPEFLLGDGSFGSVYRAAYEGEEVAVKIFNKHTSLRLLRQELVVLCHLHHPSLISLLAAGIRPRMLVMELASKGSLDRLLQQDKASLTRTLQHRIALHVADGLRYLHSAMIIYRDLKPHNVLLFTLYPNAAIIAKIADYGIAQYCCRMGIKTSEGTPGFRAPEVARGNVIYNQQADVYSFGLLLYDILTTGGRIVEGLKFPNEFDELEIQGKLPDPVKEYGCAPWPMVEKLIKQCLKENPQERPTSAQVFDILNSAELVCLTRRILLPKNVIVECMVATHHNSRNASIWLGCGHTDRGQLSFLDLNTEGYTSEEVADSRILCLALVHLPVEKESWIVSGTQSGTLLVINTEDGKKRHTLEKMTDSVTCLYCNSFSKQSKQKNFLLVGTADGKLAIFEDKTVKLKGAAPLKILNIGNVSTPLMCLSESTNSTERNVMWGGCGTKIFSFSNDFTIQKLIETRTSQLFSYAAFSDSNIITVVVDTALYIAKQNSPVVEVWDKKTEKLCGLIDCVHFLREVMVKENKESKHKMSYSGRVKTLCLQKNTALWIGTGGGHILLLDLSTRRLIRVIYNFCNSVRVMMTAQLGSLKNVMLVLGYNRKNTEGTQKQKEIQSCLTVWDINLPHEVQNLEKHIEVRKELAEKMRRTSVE
Background: In ADP-Glo the light output rises with the ADP produced.
Broadly, the IC50 is the concentration that gives 50% inhibition. Regarding `C[C@H]1COc2ccc3[nH]nc(c3c2)-c2cnn(c2)CCOCCO1` [Example 54, (12S)-12-methyl-8,11,14-trioxa-4,5,19,20-tetraazatetracyclo[13.5.2.1^2,5.0^18,21]tricosa-1(20),2(23),3,15(22),16,18(21)-hexaene], the IC50 was < 10 nM.

In the case of `C[C@@H]1COCCCOc2ccc3[nH]nc(c3c2)-c2ccnc(n2)O1` [Example 55, (8R)-8-methyl-7,10,14-trioxa-5,19,20,23-tetraazatetracyclo[13.5.2.1^2,6.0^18,21] tricosa-1(20),2(23),3,5,15(22),16,18(21)heptaene], the IC50 was < 10 nM.

As to `C[C@@H]1CCOCCOc2cccc(n2)-c2n[nH]c3ccc(cc23)O1` [Example 56, (13R)-13-methyl-7,10,14-trioxa-19,20,23-triazatetracyclo[13.5.2.1^2,6.0^18,21] tricosa-1(20),2(23),3,5,15(22),16,18(21)-heptaene], the IC50 was < 10 nM.

Consider `C[C@H]1CCOCCCn2cnc(c2)-c2n[nH]c3ccc(cc23)O1` [Example 57, (12S)-12-methyl-9,13-dioxa-3,5,18,19-tetraazatetracyclo [12.5.2.1^2,5.0^17,20] docosa-1(19),2(22),3,14(21),15,17(20)-hexaene], for which the IC50 was < 1000 nM.

With `C[C@@H]1COc2cncc(n2)-c2n[nH]c3ccc(cc23)O[C@@H](C)CCO1` [Example 58, (9R,13S)-9,13-dimethyl-7,10,14-trioxa-4,19,20,23-tetraazatetracyclo[13.5.2.1^2,6.0^18,21]tricosa-1(20),2(23),3,5,15(22),16,18(21)-heptaene], the IC50 was < 100 nM.

For the compound `C[C@H]1COc2nccc(n2)-c2n[nH]c3ccc(cc23)O[C@@H](C)CCO1` [Example 59, (9S,13S)-9,13-dimethyl-7,10,14-trioxa-5,19,20,23-tetraazatetracyclo [13.5.2.1^2,6.0^18,21]tricosa-1(20),2(23),3,5,15(22),16,18(21)-heptaene], the IC50 was < 100 nM.

Consider `C[C@@H]1COCCOc2ccc3[nH]nc(c3c2)-c2cnn(c2)CCO1` [Example 60, (9R)-9-methyl-8,11,14-trioxa-4,5,19,20-tetraazatetracyclo[13.5.2.1^2,5.0^18,21] tricosa-1(20),2(23),3,15(22),16,18(21)-hexaene], for which the IC50 was < 100 nM.

Consider `C[C@H]1COCCOc2ccc3[nH]nc(c3c2)-c2cnn(c2)CCO1` [Example 61, (9S)-9-methyl-8,11,14-trioxa-4,5,19,20-tetraazatetracyclo[13.5.2.1^2,5.0^18,21] tricosa-1(20),2(23),3,15(22),16,18(21)-hexaene], for which the IC50 was < 100 nM.

With `C[C@H]1CCOCCOCc2nc(cs2)-c2n[nH]c3ccc(cc23)O1` [Example 62, (13S)-13-methyl-7,10,14-trioxa-4-thia-19,20,23-triazatetracyclo[13.5.2.1^2,5.0^18,21]tricosa-1(20),2,5(23),15(22),16,18(21)-hexaene], the IC50 is < 100 nM.

In the case of `c1cc2[nH]nc3c2cc1OCCOCCOCCn1cc-3cn1` [Example 63, 8,11,14-trioxa-4,5,19,20-tetraazatetracyclo[13.5.2.1^2,5.0^18,21]tricosa-1(20), 2(23),3,15(22),16,18(21)-hexaene], the IC50 is < 10 nM.

Turning to `C[C@H]1COCCOCCOc2ccc3[nH]nc(c3c2)-c2cnn1c2` [Example 64, (6S)-6-methyl-8,11,14-trioxa-4,5,19,20-tetraazatetra cyclo[13.5.2.1^2,5.0^18,21]tricosa-1(20),2(23),3,15(22),16,18(21)-hexaene], the IC50 is < 10 nM.

As for `C[C@@H]1COCCOCCOc2ccc3[nH]nc(c3c2)-c2cnn1c2` [Example 65, (6R)-6-methyl-8,11,14-trioxa-4,5,19,20-tetraazatetracyclo[13.5.2.1^2,5.0^18,21] tricosa-1(20),2(23),3,15(22),16,18(21)-hexaene], the IC50 is < 10 nM.

As for `C[C@H]1CCOCCOCC2=NC=C(S2)c2n[nH]c3ccc(cc23)O1` [Example 66, (13S)-13-methyl-7,10,14-trioxa-23-thia-4,19,20-triazatetracyclo[13.5.2.1^2,5.0^18,21]tricosa-1(20),2,4,15(22),16,18(21)-hexaene], the IC50 is < 10 nM.

For `C[C@@H]1COc2ccc3[nH]nc(c3c2)-c2cnn(c2)CCOCCO1` [Example 67, (12R)-12-methyl-8,11,14-trioxa-4,5,19,20-tetraazatetracyclo[13.5.2.1^2,5.0^18,21]tricosa-1(20),2(23),3,15(22),16,18(21)-hexaene], the IC50 is < 10 nM.

As for `c1ncc2cc1CCOCCOCCOc1ccc3[nH]nc-2c3c1` [Example 68, 9,12,15-trioxa-4,20,21-triazatetracyclo[14.5.2.1^2,6.0^19,22]tetracosa-1(21), 2(24),3,5,16(23),17,19(22)-heptaene], the IC50 was < 100 nM.

Consider `C[C@H]1COCCOCCc2cncc(c2)-c2n[nH]c3ccc(cc23)O1` [Example 69, (14S)-14-methyl-9,12,15-trioxa-4,20,21-triazatetracyclo[14.5.2.1^2,6.0^19,22] tetracosa-1(21),2(24),3,5,16(23),17,19(22)-heptaene], for which the IC50 was < 100 nM.

For `C[C@@H]1COCCn2cc(cn2)-c2n[nH]c3ccc(cc23)OCCO1` [Example 70, (10R)-10-methyl-8,11,14-trioxa-4,5,19,20-tetraazatetracyclo[13.5.2.1^2,5.0^18,21]tricosa-1(20),2(23),3,15(22),16,18(21)-hexaene], the IC50 is < 100 nM.

On to `C[C@@H]1COCCOCCn2ncc(n2)-c2n[nH]c3ccc(cc23)O1` [Example 71, (13R)-13-methyl-8,11,14-trioxa-4,5,19,20,23-pentaazatetracyclo[13.5.2.1^2,5.0^18,21]tricosa-1(20),2(23),3,15(22),16,18(21)-hexaene], for which the IC50 is < 100 nM.

In the case of `C[C@H]1COCCOCCn2cc(cc2C#N)-c2n[nH]c3ccc(cc23)O1` [Example 72, (13S)-13-methyl-8,11,14-trioxa-5,19,20-triazatetracyclo[13.5.2.1^2,5.0^18,21] tricosa-1(20),2(23),3,15(22),16,18(21)-hexaene-4-carbonitrile], the IC50 was < 10 nM.

Turning to `c1nn2cc1-c1n[nH]c3ccc(nc13)OCCOCCOCC2` [Example 73, 8,11,14-trioxa-4,5,19,20,22-pentaazatetracyclo[13.5.2.1^2,5.0^18,21]tricosa-1(20),2(23),3,15(22), 16,18(21)-hexaene], the IC50 was < 100 nM.

On to `c1cc2[nH]nc3c2cc1OCCCOCCCn1ncc-3n1` [Example 74, 9,13-dioxa-4,5,18,19,22-pentaazatetracyclo[12.5.2.1^2,5.0^17,20]docosa-1(19), 2(22),3,14(21),15,17(20)-hexaene], for which the IC50 was < 10 nM.

As for `C[C@@H]1CCOCCOCC2=NC=C(S2)c2n[nH]c3ccc(cc23)O1` [Example 75, (13R)-13-methyl-7,10,14-trioxa-23-thia-4,19,20-triazatetracyclo[13.5.2.1^2,5.0^18,21]tricosa-1(20),2,4,15(22),16,18(21)-hexaene], the IC50 is < 10 nM.

As for `C[C@@H]1COCCOCCc2nc(cn2C)-c2n[nH]c3ccc(cc23)O1` [Example 76, (13R)-4,13-dimethyl-8,11,14-trioxa-4,19,20,23-tetraazatetracyclo[13.5.2.1^2,5.0^18,21]tricosa-1(20),2,5(23),15(22),16,18(21)-hexaene], the IC50 was > 1000 nM.

Regarding `C[C@@H]1Cn2cc(cn2)-c2n[nH]c3ccc(cc23)OCCOCCO1` [Example 77, (7R)-7-methyl-8,11,14-trioxa-4,5,19,20-tetraazatetracyclo[13.5.2.1^2,5.0^18,21] tricosa-1(20),2(23),3,15(22),16,18(21)-hexaene], the IC50 is < 100 nM.

Regarding `FC1(F)COCCOCCn2cc(cn2)-c2n[nH]c3ccc(cc23)O1` [Example 78, 13,13-difluoro-8,11,14-trioxa-4,5,19,20-tetraazatetra cyclo[13.5.2.1^2,5.0^18,21]tricosa-1(20),2(23),3, 15(22),16,18(21)-hexaene], the IC50 was < 10 nM.

Consider `C[C@H]1CCOCCOCc2nc(cn2C)-c2n[nH]c3ccc(cc23)O1` [Example 79, (13S)-4,13-dimethyl-7,10,14-trioxa-4,19,20,23-tetraazatetracyclo[13.5.2.1^2,5.0^18,21]tricosa-1(20),2,5(23),15(22),16,18(21)-hexaene], for which the IC50 was < 100 nM.

On to `C[C@H]1COCCOCCn2ccc(n2)-c2n[nH]c3ccc(cc23)O1` [Example 80, (13S)-13-methyl-8,11,14-trioxa-5,19,20,23-tetraazatetracyclo [13.5.2.1^2,5.0^18,21]tricosa-1(20),2(23),3,15(22),16,18(21)-hexaene], for which the half-inhibitory concentration (IC50) is < 1000 nM.

`C[C@H]1COCCOCCn2ncc(n2)-c2n[nH]c3ccc(cc23)O1` [Example 81, (13S)-13-methyl-8,11,14-trioxa-4,5,19,20,23-pentaazatetracyclo[13.5.2.1^2,5.0^18,21]tricosa-1(20),2(23),3,15(22),16,18(21)-hexaene]: the IC50 was < 100 nM.

Take `C[C@@H]1COCCOCCn2cc(cc2C#N)-c2n[nH]c3ccc(cc23)O1` [Example 82, (13R)-13-methyl-8,11,14-trioxa-5,19,20-triazatetracyclo[13.5.2.1^2,5.0^18,21] tricosa-1(20),2(23),3,15(22),16,18(21)-hexaene-4-carbonitrile]: the IC50 is < 100 nM.

Regarding `C[C@@H]1COCCOCCn2ccc(n2)-c2n[nH]c3ccc(cc23)O1` [Example 83, (13R)-13-methyl-8,11,14-trioxa-5,19,20,23-tetraazatetracyclo[13.5.2.1^2,5.0^18,21]tricosa-1(20),2(23),3,15(22),16,18(21)-hexaene], the IC50 is < 1000 nM.

As for `c1cc2[nH]nc3c2cc1OCCOCCCOCc1ncc-3s1` [Example 84, 7,11,14-trioxa-23-thia-4,19,20-triazatetracyclo[13.5.2.1^2,5.0^18,21]tricosa-1(20),2,4,15(22), 16,18(21)-hexaene], the IC50 was < 10 nM.
